Values quoted from earlier work in patent publication US20100022659A1, “Methods and Compositions for the Treatment of CNS-Related Conditions” (priority 2004, published 2010).
Read-outs that look alike come from different tables or passages of the source.

Settings: humans, cited from earlier work
[1] = MAO inhibitors/GAPDHais, Table 2

| Compound | Human PK (NMDAr antagonists, Table 1) | Human PK [1] |
| --- | --- | --- |
| CC12CC3CC(C)(C1)CC(N)(C3)C2 [Memantine, 1-amino-3,5-dimethyladamantane] | 56 h | – |
| C#CCN[C@@H]1CCc2ccccc21 [N-propargyl-1(R)-aminoindan/Rasageline, N-propargyl-1(R)-aminoindan] | – | 1.8 h |
| CC(N)C12CC3CC(CC(C3)C1)C2 (stereo not shown) [Rimantadine, 1-(1-aminoethyl)adamantane] | 25 h | – |
| Desmethyldeprenyl | – | 3.8 to 9.5 h |
